Experimental data published in article PMC5404542, “In Vitro and In Vivo Antifungal Profile of a Novel and Long-Acting Inhaled Azole, PC945, on Aspergillus fumigatus Infection” (Antimicrobial Agents and Chemotherapy, 2017).
Converted amounts (≈) assume the structure as drawn. “And” between values parts separate entries of the source, which are not always exact repeats. Equal entries are not always repeated. Where two headings read alike, the source gives them in different places.

Key:
A. fumigatus ATCC 204305 = test: MIC with and without BSA supplementation, quality control strain; conditions: Aspergillus fumigatus
Procedure: (§1) Conidia were added across the plate to a final concentration of 1 × 10^5 ml^−1. […] Determination of antifungal activity against 50 A. fumigatus clinical isolates from St. Louis Hospital (Paris, France) was performed with 96-well plates, using the modified EUCAST method in the presence of 0.5% BSA as described above. Antifungal susceptibility testing of 46 A. fumigatus isolates (obtained from the NW England Mycology Reference Centre) was performed by Evotec UK Ltd. (Manchester, United Kingdom) according to EUCAST guidelines.

A. fumigatus (NCPF2010) = test: A. fumigatus cell-based ergosterol assay; design: species or system Aspergillus fumigatus; conditions: Aspergillus fumigatus; NCPF2010, 24 h, normalized by crystal violet; read-out: IC50, inhibition of ergosterol production
Procedure: After incubation for 24 h at 35°C, medium was removed from all wells and replaced with reaction buffer (Amplex red cholesterol assay kit; Thermo Fisher) and Amplex red solution. Plates were incubated for 30 min at 37°C, protected from light, after which fluorescence was quantified using a spectrophotometer. Medium was removed from all wells and replaced with crystal violet solution (1% [vol/vol]), and plates were incubated at room temperature on a shaker for 30 min. Plates were washed three times with phosphate-buffered saline (PBS), and sodium dodecyl sulfate solution (0.1% [vol/vol]) was added across the plate to lyse the cells. After incubation at room temperature for 1 h, the absorbance was measured by determining the OD590 by use of a spectrophotometer.

[1] = system: Candida krusei (ATCC 6258); test: MIC, CLSI; assay type: cell-based; conditions: Pichia kudriavzevii, ATCC6258
[2] = system: Cryptococcus neoformans (ATCC 24067); test: MIC, CLSI; assay type: cell-based; conditions: Cryptococcus neoformans, ATCC24067
[3] = system: Candida glabrata (ATCC 36583, R363); test: MIC, CLSI; assay type: cell-based; conditions: Nakaseomyces glabratus, ATCC36583, read-out: MIC (the MIC given is the MIC50)
[4] = system: Aspergillus flavus (ATCC 204304); test: MIC, CLSI; assay type: cell-based; conditions: ATCC204304
[5] = system: Aureobasidium pullulans (ATCC 9348); test: MIC, CLSI; assay type: cell-based; conditions: ATCC9348, 1 strain
[6] = system: Lichtheimia corymbifera (ATCC 7909); test: MIC, CLSI; assay type: cell-based; conditions: ATCC7909, 1 strain
[7] = system: BEAS2B cells infected with A. fumigatus; test: Persistence of action on bronchial epithelial cells (galactomannan in supernatant); assay type: cell-based, Aspergillus fumigatus; conditions: for IC50: Aspergillus fumigatus, BEAS-2B
Procedure: The persistence of action of test agents was evaluated on immortalized bronchial epithelial cells (BEAS2B cells). […] Test and reference articles or undiluted DMSO (as vehicle) (0.5 μl/well) was added to the appropriate wells of the washout plate to give a final concentration of 0.5% DMSO. The plate was incubated for exactly 1 h at 37°C and 5% CO2. After the incubation time had elapsed, all wells on the washout plate were aspirated, and growth medium (100 μl/well) was added across the plate. After 24 h of incubation at 37°C, test and reference articles or undiluted DMSO (as vehicle) (0.5 μl/well) was added to the appropriate wells of the nonwashout plate to give a final concentration of 0.5% DMSO. The plate was incubated for exactly 1 h at 37°C and 5% CO2, after which A. fumigatus conidia were added across both plates to a final concentration of 1 × 10^3/well.

[8] = system: Chaetomium globosum (ATCC 44699); test: MIC, CLSI; assay type: cell-based; conditions: ATCC44699, 1 strain
[9] = system: Aspergillus flavus (AFL8, NRRC3357); test: MIC, EUCAST; assay type: cell-based
[10] = system: Mucor circinelloides (ATCC 8542); test: MIC, CLSI; assay type: cell-based; conditions: ATCC8542, 1 strain
[11] = system: Rhizopus oryzae (ATCC 11145); test: MIC, CLSI; assay type: cell-based
[12] = system: AR Candida albicans (20183.073, 20186.025); test: MIC, CLSI; assay type: cell-based; conditions: read-out: MIC (the MIC given is the MIC50)
[13] = system: Rhizomucor pusillus (ATCC 16458); test: MIC, CLSI; assay type: cell-based; conditions: ATCC16458, 1 strain
[14] = system: Cladosporium argillaceum (ATCC 38013); test: MIC, CLSI; assay type: cell-based; conditions: Rhizocladosporium argillaceum, ATCC38013, 1 strain
[15] = system: Aspergillus niger (ATCC 1015); test: MIC, EUCAST; assay type: cell-based; conditions: ATCC1015
[16] = system: Penicillium chrysogenum (ATCC 9480); test: MIC, CLSI; assay type: cell-based; conditions: ATCC9480, 1 strain
[17] = system: A. fumigatus hyphae (NCPF2010)
Procedure: (§2) The persistence of action of test agents was calculated for A. fumigatus hyphae (NCPF2010). […] The plates were incubated for exactly 20 min at 35°C and 5% CO2. After the incubation time had elapsed, all wells on the designated washout plate were aspirated, and growth medium (100 μl/well) was added across the plate. […] Resazurin (0.04%; diluted in growth medium) was added to all wells of both nonwashout and washout plates (5 μl/well) to give a final concentration of 0.002% resazurin. The plates were incubated at 35°C and 5% CO2 for 16 h. […] The percent inhibition for each well was calculated, and the IC50 was calculated from the concentration-response curve generated for each test compound by use of a four-parameter logistic equation (Dotmatics, Bishops Stortford, United Kingdom).

[18] = system: Gibberella zeae (Fusarium graminearum) (ATCC 16106); test: microbe, parasite or virus in culture; assay type: cell-based; conditions: ATCC16106
[19] = Precipitation in EUCAST medium; assay type: physicochemical
[20] = system: Trichophyton rubrum (ATCC 10218); test: MIC, CLSI; assay type: cell-based; conditions: ATCC10218, 1 strain
[21] = system: 96 clinically isolated A. fumigatus strains; test: MIC against 96 clinically isolated strains (EUCAST, visual)
Procedure: as §1

[22] = system: A. fumigatus hyphae (NCPF2010); test: Persistence of action on A. fumigatus hyphae (resazurin-based microtiter assay); conditions: Aspergillus fumigatus, NCPF2010, 16 h, read-out: Hyphae IC50, No washout
Procedure: as §2

[23] = system: Candida albicans (20240.047, ATCC 10231); test: MIC, CLSI; assay type: cell-based; conditions: ATCC10231, read-out: MIC (the MIC given is the MIC50)
[24] = system: Aspergillus terreus (AT49, AT7130); test: MIC, EUCAST; assay type: cell-based
[25] = system: Aspergillus carbonarius (ATCC 8740); test: MIC, CLSI; assay type: cell-based; conditions: ATCC8740
[26] = system: Penicillium citrinum (ATCC 9849); test: MIC, CLSI; assay type: cell-based; conditions: ATCC9849, 1 strain

C[C@@H]1[C@H](O)[C@@H](C)/C=C/C=C/C=C/C=C/C=C/C=C/C=C/[C@H](O[C@@H]2O[C@H](C)[C@@H](O)[C@H](N)[C@@H]2O)C[C@@H]2O[C@](O)(C[C@@H](O)C[C@@H](O)[C@H](O)CC[C@@H](O)C[C@@H](O)CC(=O)O[C@H]1C)C[C@H](O)[C@H]2C(=O)O [Amphotericin B, amphotericin B]
MIC (A. fumigatus ATCC 204305; ATCC204305, with BSA): 2 µg/mL (≈ 2.16 µM) | MIC (A. fumigatus ATCC 204305; ATCC204305, without BSA): 1 µg/mL (≈ 1.08 µM)

CCC(C)n1ncn(-c2ccc(N3CCN(c4ccc(OCC5COC(Cn6cncn6)(c6ccc(Cl)cc6Cl)O5)cc4)CC3)cc2)c1=O (stereo not shown) [Itraconazole, itraconazole]
MIC (A. fumigatus ATCC 204305; ATCC204305, with BSA): 0.125 µg/mL (≈ 0.177 µM) | MIC (A. fumigatus ATCC 204305; ATCC204305, without BSA): 0.25 µg/mL (≈ 0.354 µM)

C[C@@H](c1ncncc1F)[C@](O)(Cn1cncn1)c1ccc(F)cc1F [Voriconazole, voriconazole]
IC50 (A. fumigatus (NCPF2010)): 0.067 µg/mL and 190 nM | MIC [1]: 0.25 µg/mL (≈ 0.716 µM) | MIC [2]: 0.016 µg/mL (≈ 0.0458 µM) | MIC50 [3]: 8.13 µg/mL (≈ 23.3 µM) | MIC [4]: 2 µg/mL (≈ 5.73 µM) | MIC [5]: > 8 µg/mL | MIC [6]: > 8 µg/mL | BEAS2B cells IC50, Washout ([7]; 1 h contact, 24-h washout prior to infection, GM readout): ineffective | IC50 ([7]; 1 h contact before infection, GM readout after 24 h, read-out: BEAS2B cells IC50, No washout): 0.054 µg/mL (≈ 0.155 µM) | IC50 ([7]; 1 h contact, 24-h washout prior to infection, GM readout, read-out: BEAS2B cells IC50, Washout): > 1 µg/mL | MIC [8]: 1 µg/mL (≈ 2.86 µM) | MIC [9]: 0.63 µg/mL (≈ 1.8 µM) | MIC [10]: > 8 µg/mL | MIC ([11]; 1 strain): >8 µg/mL | MIC ([11]; Rhizopus arrhizus, ATCC11145, 1 strain, read-out: MIC): > 8 µg/mL | MIC50 [12]: 10 µg/mL (≈ 28.6 µM) | MIC [13]: > 8 µg/mL | MIC [14]: 0.5 µg/mL (≈ 1.43 µM) | MIC [15]: 1 µg/mL (≈ 2.86 µM) | MIC [16]: 2 µg/mL (≈ 5.73 µM) | IC50 [17]: > 1 µg/mL | MIC [18]: > 8 µg/mL | concentration at which compound precipitated in EUCAST medium [19]: did not | MIC [20]: 0.063 µg/mL (≈ 0.18 µM) | MIC, Range ([21]; 96 clinical isolates, determined visually): 0.064 to 4 µg/mL | MIC50 ([21]; Aspergillus fumigatus): 0.5 µg/mL (≈ 1.43 µM) | MIC90 ([21]; Aspergillus fumigatus): 1 µg/mL (≈ 2.86 µM) | MIC ([21]; Aspergillus fumigatus, read-out: MIC, Geometric mean): 0.42 µg/mL (≈ 1.2 µM) | MIC ([21]; Aspergillus fumigatus, read-out: MIC, Mode): 0.5 µg/mL (≈ 1.43 µM) | IC50 [22]: 0.011 µg/mL (≈ 0.0315 µM) | MIC50 [23]: 0.14 µg/mL (≈ 0.401 µM) | MIC (A. fumigatus ATCC 204305; ATCC204305, with BSA): 1 to 2 µg/mL (≈ 2.86 to 5.73 µM) | MIC (A. fumigatus ATCC 204305; ATCC204305, without BSA): 2 µg/mL (≈ 5.73 µM) | MIC [24]: 1 µg/mL (≈ 2.86 µM) | MIC [25]: 0.5 µg/mL (≈ 1.43 µM) | MIC [26]: > 8 µg/mL
